One experiment has as its target EGFR (human) (UniProt P00533).
Another experiment concerns the target CDK2 (human) (UniProt P24941). Nature of the experiment: Enzyme Assay.

Sequence of EGFR (human) (P00533 whole entry, looked up): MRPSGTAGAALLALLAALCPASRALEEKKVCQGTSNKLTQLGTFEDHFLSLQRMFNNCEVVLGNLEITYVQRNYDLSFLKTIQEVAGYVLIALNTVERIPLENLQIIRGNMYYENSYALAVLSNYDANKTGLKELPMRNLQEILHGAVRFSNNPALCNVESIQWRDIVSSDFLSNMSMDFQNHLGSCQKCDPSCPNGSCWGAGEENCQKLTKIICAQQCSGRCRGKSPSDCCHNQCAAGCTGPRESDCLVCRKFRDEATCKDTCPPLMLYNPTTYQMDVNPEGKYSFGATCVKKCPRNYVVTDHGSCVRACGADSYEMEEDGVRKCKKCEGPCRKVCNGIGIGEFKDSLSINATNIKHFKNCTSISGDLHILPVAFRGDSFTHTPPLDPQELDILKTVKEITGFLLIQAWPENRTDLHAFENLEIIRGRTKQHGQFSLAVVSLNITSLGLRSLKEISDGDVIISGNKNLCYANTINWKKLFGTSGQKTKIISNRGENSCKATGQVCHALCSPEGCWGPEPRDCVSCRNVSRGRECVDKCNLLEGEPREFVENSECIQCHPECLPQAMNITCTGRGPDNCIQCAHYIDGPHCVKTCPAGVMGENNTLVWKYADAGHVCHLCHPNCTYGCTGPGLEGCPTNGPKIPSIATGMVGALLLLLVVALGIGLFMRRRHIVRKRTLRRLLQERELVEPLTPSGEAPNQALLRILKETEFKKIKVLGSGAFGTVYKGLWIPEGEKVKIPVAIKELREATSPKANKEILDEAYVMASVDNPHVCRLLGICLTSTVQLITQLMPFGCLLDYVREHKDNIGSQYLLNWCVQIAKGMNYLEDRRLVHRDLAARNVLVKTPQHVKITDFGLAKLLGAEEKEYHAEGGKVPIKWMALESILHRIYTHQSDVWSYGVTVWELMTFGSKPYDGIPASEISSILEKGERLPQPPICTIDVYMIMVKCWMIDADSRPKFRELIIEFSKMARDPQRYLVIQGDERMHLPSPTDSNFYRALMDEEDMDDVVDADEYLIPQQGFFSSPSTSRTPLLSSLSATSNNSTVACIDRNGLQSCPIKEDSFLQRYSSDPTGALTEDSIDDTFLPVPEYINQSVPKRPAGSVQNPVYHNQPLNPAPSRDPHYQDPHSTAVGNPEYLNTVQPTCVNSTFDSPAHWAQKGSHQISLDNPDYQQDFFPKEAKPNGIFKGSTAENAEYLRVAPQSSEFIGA

For the compound `COc1cc2ncnc(Nc3ccc(F)c(Cl)c3)c2cc1OCCCCC(=O)NO`, the 50% inhibitory concentration (IC50) – broadly, the point on the concentration scale where inhibition reaches its midpoint – on EGFR (human) is ≤ 100 nM. With `CC(C)(C)c1cnc(CSc2cnc(NC(=O)Cc3ccc(OCCCC(=O)NO)cc3)s2)o1`, the IC50 on CDK2 (human) is ≤ 100 nM. Take `CC(C)(C)c1cnc(CSc2cnc(NC(=O)CCCCC(=O)NO)s2)o1`: at CDK2 (human), the concentration for half-maximal inhibition (IC50) is ≤ 100 nM. `COc1cc2ncnc(Nc3ccc(F)c(Cl)c3)c2cc1OCCOc1ccc(C(=O)NO)cc1`: the IC50 against EGFR (human) was ≤ 100 nM.

In the case of `COc1cc2ncnc(Nc3ccc(OCc4cccc(F)c4)c(Cl)c3)c2cc1OCCCCCCC(=O)NO`, at EGFR (human), the IC50 is ≤ 100 nM.

Turning to `COc1cc2ncnc(Nc3ccc(F)c(Cl)c3)c2cc1CCCCCC(=O)NO`, at EGFR (human), the IC50 is ≤ 100 nM. Regarding `COCCOc1cc2ncnc(Nc3ccc(F)c(Cl)c3)c2cc1NC(=O)CCCCCCC(=O)NO`, the half-maximal inhibitory concentration (IC50) against EGFR (human) was ≤ 100 nM. In the case of `COCCOc1cc2ncnc(Nc3ccc(F)c(Cl)c3)c2cc1NC(=O)CCCCC(=O)NO`, the IC50 at EGFR (human) is ≤ 100 nM.

Take `O=C(CCCCCNCc1ccc(-c2ccc3ncnc(Nc4ccc(OCc5cccc(F)c5)c(Cl)c4)c3c2)o1)NO`: the concentration for half-maximal inhibition (IC50) against EGFR (human) is ≤ 100 nM.

As for `O=C(CCCCCCOc1ccc2ncnc(Nc3ccc(OCc4cccc(F)c4)c(Cl)c3)c2c1)NO`, at EGFR (human), the IC50 was ≤ 100 nM. Regarding `C[C@@H](Nc1ncnc2[nH]c(-c3ccc(NC(=O)CCNCCCCCC(=O)NO)cc3)cc12)c1ccccc1`, the 50% inhibitory concentration (IC50) on EGFR (human) was ≤ 100 nM. For `COCCOc1cc2ncnc(Nc3ccc(F)c(Cl)c3)c2cc1NC(=O)CCCC(=O)NO`, at EGFR (human), the concentration for half-maximal inhibition (IC50) is ≤ 100 nM.

Take `C#Cc1cccc(Nc2ncnc3cc(OC)c(NC(=O)CCCCC(=O)NO)cc23)c1`: the IC50 against EGFR (human) is ≤ 100 nM. Same read-out and setting: the value for `COc1cc2ncnc(Nc3ccc(F)c(Cl)c3)c2cc1SCCCCCCC(=O)NO` was ≤ 100 nM. As to `C#Cc1cccc(Nc2ncnc3cc(OC)c(OCCC(=O)NO)cc23)c1`, the IC50 against EGFR (human) was ≤ 100 nM. Turning to `O=C(CCCCOc1ccc2ncnc(Nc3ccc(F)c(Cl)c3)c2c1)NO`, the IC50 at EGFR (human) was ≤ 100 nM. In the case of `COc1cc2ncnc(Nc3ccc(F)c(Cl)c3)c2cc1NC(=O)CCCC(=O)NO`, the half-maximal inhibitory concentration (IC50) against EGFR (human) is ≤ 100 nM.

With `CC(C)(C)c1cnc(CSc2cnc(NC(=O)Cc3ccc(OCCCCC(=O)NO)cc3)s2)o1`, the IC50 against CDK2 (human) was ≤ 100 nM. In the case of `C#Cc1cc(Nc2ncnc3cc(OC)c(OCCCCCCC(=O)NO)cc23)ccc1O`, on EGFR (human), the IC50 is ≤ 100 nM. On the same count and under the same terms, for `C#Cc1cccc(Nc2ncnc3cc(OC)c(NC(=O)CCCCCCC(=O)NO)cc23)c1` the value was ≤ 100 nM; for `C#Cc1cccc(Nc2ncnc3cc(OC)c(OCCCCCC(=O)NO)cc23)c1`, ≤ 100 nM. On the same count and under the same terms, the value for `COc1cc2ncnc(Nc3ccc(F)c(Cl)c3)c2cc1SCCCCC(=O)NO` was ≤ 100 nM.

With `C#Cc1cccc(Nc2ncnc3cc(OC)c(NC(=O)CCCC(=O)NO)cc23)c1`, at EGFR (human), the 50% inhibitory concentration (IC50) was ≤ 100 nM. For the compound `O=C(COc1ccc2ncnc(Nc3ccc(F)c(Cl)c3)c2c1)NO`, on EGFR (human), the half-maximal inhibitory concentration (IC50) is ≤ 100 nM.

With `C#Cc1cccc(Nc2ncnc3cc(OCCCCCCC(=O)NO)c(OCCOC)cc23)c1`, the IC50 at EGFR (human) is ≤ 100 nM. For the compound `CC(C)(C)c1cnc(CSc2cnc(NC(=O)CCCCCCC(=O)NO)s2)o1`, on CDK2 (human), the half-maximal inhibitory concentration (IC50) is ≤ 100 nM. Regarding `C[C@@H](Nc1ncnc2[nH]c(-c3ccc(NC(=O)CCNCCCCCCC(=O)NO)cc3)cc12)c1ccccc1`, the IC50 at EGFR (human) was ≤ 100 nM. Turning to `COCCOc1cc2c(Nc3ccc(F)c(Cl)c3)ncnc2cc1OCCCCCCC(=O)NO`, on EGFR (human), the half-inhibitory concentration (IC50) is ≤ 100 nM. On the same count and under the same terms, the value for `C#Cc1cccc(Nc2ncnc3cc(OCCOC)c(OCCCCCCC(=O)NO)cc23)c1` was ≤ 100 nM.

Consider `CC(C)(C)c1cnc(CSc2cnc(NC(=O)CCCC(=O)NO)s2)o1`, for which the IC50 against CDK2 (human) was ≤ 100 nM.

Consider `COc1cc2ncnc(Nc3ccc(F)c(Cl)c3)c2cc1NC(=O)CCCCCCC(=O)NO`, for which the IC50 on EGFR (human) was ≤ 100 nM. Consider `C#Cc1cccc(Nc2ncnc3cc(OC)c(OCC(=O)NO)cc23)c1`, for which, at EGFR (human), the half-maximal inhibitory concentration (IC50) is ≤ 100 nM. In the case of `C#Cc1cccc(Nc2ncnc3ccc(OCCCCC(=O)NO)cc23)c1`, at EGFR (human), the IC50 was ≤ 100 nM.

In the case of `COc1cc2ncnc(Nc3ccc(F)c(Cl)c3)c2cc1OCCCCCC(=O)NO`, the concentration for half-maximal inhibition (IC50) on EGFR (human) is ≤ 100 nM. On to `COc1cc2ncnc(Nc3ccc(F)c(Cl)c3)c2cc1OCCCC(=O)NO`, for which the concentration for half-maximal inhibition (IC50) against EGFR (human) was ≤ 100 nM.

For the compound `CC(C)(C)c1cnc(CSc2cnc(NC(=O)CCCCCC(=O)NO)s2)o1`, the IC50 against CDK2 (human) was ≤ 100 nM. For the compound `O=C(CCOc1ccc2ncnc(Nc3ccc(F)c(Cl)c3)c2c1)NO`, on EGFR (human), the IC50 was ≤ 100 nM.

In the case of `COc1cc2ncnc(Nc3ccc(F)c(Cl)c3)c2cc1OCC(=O)NO`, at EGFR (human), the IC50 was ≤ 100 nM. Regarding `C#Cc1cccc(Nc2ncnc3cc(OC)c(OCCCC(=O)NO)cc23)c1`, the IC50 against EGFR (human) was ≤ 100 nM. For `COCCOc1cc2ncnc(Nc3ccc(F)c(Cl)c3)c2cc1OCCCCCCC(=O)NO`, the IC50 at EGFR (human) is ≤ 100 nM. On to `C#Cc1cccc(Nc2ncnc3ccc(OCC(=O)NO)cc23)c1`, for which the 50% inhibitory concentration (IC50) against EGFR (human) was ≤ 100 nM. On to `O=C(CCCCCCOc1ccc2ncnc(Nc3ccc(F)c(Cl)c3)c2c1)NO`, for which the IC50 on EGFR (human) was ≤ 100 nM. For the compound `O=C(CCCCCOc1ccc2ncnc(Nc3ccc(F)c(Cl)c3)c2c1)NO`, on EGFR (human), the 50% inhibitory concentration (IC50) was ≤ 100 nM. Consider `COc1cc2ncnc(Nc3ccc(F)c(Cl)c3)c2cc1OCCC(=O)NO`, for which the 50% inhibitory concentration (IC50) on EGFR (human) was ≤ 100 nM. As for `C#Cc1cccc(Nc2ncnc3cc(OCCCCCCC(=O)NO)c(OC)cc23)c1`, at EGFR (human), the IC50 was ≤ 100 nM.

These data come from the Kinase Knowledgebase extract (Sharma et al. 2016).
